Results taken from patent US5436369A, “Alicyclic phospholipase A2 inhibitors” (Bristol-Myers Squibb Company, priority 1994, dated 1995).

Molecular target: T1, PLA2 (Homo sapiens, UniProt P14555)
T1 construct: The enzyme is isolated from human platelets; from tissue; host or cells: human platelets
T1 sequence (P14555 21-144): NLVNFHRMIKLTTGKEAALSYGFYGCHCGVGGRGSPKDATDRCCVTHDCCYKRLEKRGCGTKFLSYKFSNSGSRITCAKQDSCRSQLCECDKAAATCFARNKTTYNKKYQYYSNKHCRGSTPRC
Assay: PLA2 Inhibition Assay (14C-oleate labeled E. coli membrane substrate)
Format: biochemical
Conditions: enzyme isolated from human platelets; for inhibition at 100 µM: Table 4, Structure 20 (Type IB)
Experimental: The method used is similar to that reported by Franson, et al. [Jesse, R. L. and Franson R. C., Biochim. Biophys. Acta 575:467-470 (1979); Franson, R. C., Patriarca, P., and Elsback, P., J. Lipid Res. 15: 380-388 (1974)]. The enzyme is isolated from human platelets. The substrate used consists of ^14 C-oleate labeled Escherichia coli membranes. E. coli cells are grown in the presence of ^14 C-oleic acid and then autoclaved to prepare the membranes.
Various concentrations of test compounds are pre-incubated with PLA2 (3.6 μg/mL in a buffer consisting of 25 mM HEPES (pH 7)), 150 mM NaCl, 5.0 mM CaCl2, and 10% DMSO (v/v, test compound solvent) at 37° C. for 7 minutes. The E. coli membrane substrate is then added (0.1 mM phospholipid, 0.005 μCi ^14 C) and the reaction is then incubated at 37° C. for 30 minutes. The reaction is then terminated by the addition of 1.9 mL tetrahydrofuran (THF), and the entire solution is applied to a solid-phase extraction column (aminopropyl resin, Analytichem). The column is rinsed with an additional 1 mL of THF. The free fatty acid product of the reaction is then eluted from the column with 1 mL of 2% acetic acid in THF and collected in a scintillation vial. The amount of free fatty acid product is determined by liquid scintillation counting. The amount of inhibition produced by the test compound is calculated by comparing the counts obtained in the presence of the compound to those obtained in its absence (solvent only). Background counts were determined by performing incubations in the absence of enzyme.
Percent inhibition is determined by the equation: [formula]

SMILES: COc1ccc(CC/C=C(/C=C/C(=O)O)c2cccc(C(F)(F)F)c2)cc1C12CC3CC(CC(C3)C1)C2 [Structure 20e, (2Z),(4Z)-4-(3-Trifluoromethylphenyl)-7-[3-(1-adamantyl)-4-methoxyphenyl]-2,4-heptadienoic acid]
- inhibition at 100 µM: 81%

SMILES: COc1cc(CC/C=C(/C=C/C(=O)O)c2cccc(C(F)(F)F)c2)ccc1C12CC3CC(CC(C3)C1)C2 [Structure 20f, (2Z),(4Z)-4-(3-Trifluoromethylphenyl)-7-[4-(1-adamantyl)-3-methoxyphenyl]-2,4-heptadienoic acid]
- inhibition at 100 µM: 90%

SMILES: CC1(C)CCC(C)(C)c2cc(CC/C=C(/CCC(=O)O)c3cccc(C(F)(F)F)c3)ccc21 [Structure 40, (Z)-4-(3-trifluoromethylphenyl)-7-(5,6,7,8-tetrahydro-5,5,8,8-tetramethyl-2-naphthalenyl)-4-heptenoic acid]
- % Inhibition of PLA2 AT 100 μm (Table 6, Structure 40 (Type ID), 100 μm as printed): 79%
